Measurements taken from the supplement of paper PMC10307832.

Assays:
Assay in all cases: relative viability (nuclei count vs DMSO), 5 days (fraction); higher = more cells survive
[1] = test system: HCC-44
Summary of the method: (§1)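 Nuclei were stained with Hoechst during a one-step fixation (final 0.05% Triton X-100, 1% formaldehyde, 1 ug/ml Hoechst) carried out 5 days after dosing, then counted on 4× images. The cells, lung cancer lines in 1536-well plates, had been dosed by pin tool the day after seeding with one drug alone or a fixed anchor-drug dose plus five library-drug doses (not always all listed) in √10 steps. Relative viability is the nuclei count in treated wells divided by that in vehicle wells, and each value is the median of duplicate plates.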

[2] = test system: Calu-6
Summary of the method: as §1

[3] = test system: NCI-H1755
Summary of the method: as §1

[4] = test system: NCI-H1395
Summary of the method: as §1

[5] = test system: EBC-1
Summary of the method: as §1

[6] = test system: NCI-H1299
Summary of the method: as §1

[7] = test system: UMC-11
Summary of the method: as §1

[8] = test system: A549
Summary of the method: as §1

[9] = test system: IA-LM
Summary of the method: as §1

[10] = test system: HCC-15
Summary of the method: as §1

[11] = test system: NCI-H1703
Summary of the method: as §1

[12] = test system: EKVX
Summary of the method: as §1

SMILES: O=c1cc(N2CCOCC2)oc2c(-c3cccc4c3sc3ccccc34)cccc12 + CS(=O)(=O)CCNCc1ccc(-c2ccc3ncnc(Nc4ccc(OCc5cccc(F)c5)c(Cl)c4)c3c2)o1 [Lapatinib] (partner 2 µM)
- relative viability ([1]; first compound 0.01 µM): 1.01
- relative viability ([1]; first compound 0.03162 µM): 0.995
- relative viability ([1]; first compound 0.1 µM): 1.11
- relative viability ([1]; first compound 0.3162 µM): 0.946
- relative viability ([1]; first compound 1 µM): 1.07
- relative viability ([2]; first compound 0.01 µM): 1.08
- relative viability ([2]; first compound 0.03162 µM): 1.11
- relative viability ([2]; first compound 0.1 µM): 1.17
- relative viability ([2]; first compound 0.3162 µM): 1.08
- relative viability ([2]; first compound 1 µM): 1.05
- relative viability ([3]; first compound 0.01 µM): 0.81
- relative viability ([3]; first compound 0.03162 µM): 1.02
- relative viability ([3]; first compound 0.1 µM): 1.02
- relative viability ([3]; first compound 0.3162 µM): 1.04
- relative viability ([3]; first compound 1 µM): 1.07
- relative viability ([4]; first compound 0.01 µM): 0.997
- relative viability ([4]; first compound 0.03162 µM): 1.18
- relative viability ([4]; first compound 0.1 µM): 0.826
- relative viability ([4]; first compound 0.3162 µM): 1.04
- relative viability ([4]; first compound 1 µM): 0.854
- relative viability ([5]; first compound 0.01 µM): 0.227
- relative viability ([5]; first compound 0.03162 µM): 0.207
- relative viability ([5]; first compound 0.1 µM): 0.246
- relative viability ([5]; first compound 0.3162 µM): 0.237
- relative viability ([5]; first compound 1 µM): 0.227
- relative viability ([6]; first compound 0.01 µM): 0.957
- relative viability ([6]; first compound 0.03162 µM): 0.957
- relative viability ([6]; first compound 0.1 µM): 0.969
- relative viability ([6]; first compound 0.3162 µM): 0.961
- relative viability ([6]; first compound 1 µM): 0.964
- relative viability ([7]; first compound 0.01 µM): 0.997
- relative viability ([7]; first compound 0.03162 µM): 1.03
- relative viability ([7]; first compound 0.1 µM): 1.17
- relative viability ([7]; first compound 0.3162 µM): 0.995
- relative viability ([7]; first compound 1 µM): 0.951
- relative viability ([8]; first compound 0.01 µM): 0.964
- relative viability ([8]; first compound 0.03162 µM): 0.931
- relative viability ([8]; first compound 0.1 µM): 0.997
- relative viability ([8]; first compound 0.3162 µM): 0.979
- relative viability ([8]; first compound 1 µM): 0.968
- relative viability ([9]; first compound 0.01 µM): 0.764
- relative viability ([9]; first compound 0.03162 µM): 0.582
- relative viability ([9]; first compound 0.1 µM): 0.663
- relative viability ([9]; first compound 0.3162 µM): 0.86
- relative viability ([9]; first compound 1 µM): 0.602
- relative viability ([10]; first compound 0.01 µM): 0.823
- relative viability ([10]; first compound 0.03162 µM): 0.881
- relative viability ([10]; first compound 0.1 µM): 0.999
- relative viability ([10]; first compound 0.3162 µM): 0.871
- relative viability ([10]; first compound 1 µM): 0.86
- relative viability ([11]; first compound 0.01 µM): 1.36
- relative viability ([11]; first compound 0.03162 µM): 0.815
- relative viability ([11]; first compound 0.1 µM): 1.27
- relative viability ([11]; first compound 0.3162 µM): 1.17
- relative viability ([11]; first compound 1 µM): 1.01
- relative viability ([12]; first compound 0.01 µM): 0.218
- relative viability ([12]; first compound 0.03162 µM): 0.216
- relative viability ([12]; first compound 0.1 µM): 0.196
- relative viability ([12]; first compound 0.3162 µM): 0.202
- relative viability ([12]; first compound 1 µM): 0.219

SMILES: CCN(CC)CCCCNc1ncc2cc(-c3cc(OC)cc(OC)c3)c(NC(=O)NC(C)(C)C)nc2n1 + CS(=O)(=O)CCNCc1ccc(-c2ccc3ncnc(Nc4ccc(OCc5cccc(F)c5)c(Cl)c4)c3c2)o1 [Lapatinib] (partner 2 µM)
- relative viability ([1]; first compound 0.01 µM): 1.07
- relative viability ([1]; first compound 0.03162 µM): 1.05
- relative viability ([1]; first compound 0.1 µM): 1.26
- relative viability ([1]; first compound 0.3162 µM): 1.28
- relative viability ([1]; first compound 1 µM): 0.865
- relative viability ([2]; first compound 0.01 µM): 1.09
- relative viability ([2]; first compound 0.03162 µM): 1.15
- relative viability ([2]; first compound 0.1 µM): 1.31
- relative viability ([2]; first compound 0.3162 µM): 1.24
- relative viability ([2]; first compound 1 µM): 1.02
- relative viability ([3]; first compound 0.01 µM): 1.12
- relative viability ([3]; first compound 0.03162 µM): 1.06
- relative viability ([3]; first compound 0.1 µM): 1.04
- relative viability ([3]; first compound 0.3162 µM): 1.16
- relative viability ([3]; first compound 1 µM): 0.793
- relative viability ([4]; first compound 0.03162 µM): 0.93
- relative viability ([4]; first compound 0.1 µM): 1.07
- relative viability ([4]; first compound 0.3162 µM): 0.725
- relative viability ([4]; first compound 1 µM): 0.551
- relative viability ([5]; first compound 0.01 µM): 0.228
- relative viability ([5]; first compound 0.03162 µM): 0.231
- relative viability ([5]; first compound 0.1 µM): 0.209
- relative viability ([5]; first compound 0.3162 µM): 0.217
- relative viability ([5]; first compound 1 µM): 0.208
- relative viability ([6]; first compound 0.01 µM): 1
- relative viability ([6]; first compound 0.03162 µM): 0.977
- relative viability ([6]; first compound 0.1 µM): 0.995
- relative viability ([6]; first compound 0.3162 µM): 1.05
- relative viability ([6]; first compound 1 µM): 0.912
- relative viability ([7]; first compound 0.01 µM): 1.18
- relative viability ([7]; first compound 0.03162 µM): 1.04
- relative viability ([7]; first compound 0.1 µM): 1.1
- relative viability ([7]; first compound 0.3162 µM): 1.11
- relative viability ([7]; first compound 1 µM): 0.94
- relative viability ([8]; first compound 0.01 µM): 1.11
- relative viability ([8]; first compound 0.03162 µM): 0.957
- relative viability ([8]; first compound 0.1 µM): 1.45
- relative viability ([8]; first compound 0.3162 µM): 0.972
- relative viability ([8]; first compound 1 µM): 0.875
- relative viability ([9]; first compound 0.01 µM): 0.805
- relative viability ([9]; first compound 0.03162 µM): 0.644
- relative viability ([9]; first compound 0.1 µM): 0.917
- relative viability ([9]; first compound 0.3162 µM): 0.793
- relative viability ([9]; first compound 1 µM): 1.05
- relative viability ([10]; first compound 0.01 µM): 0.871
- relative viability ([10]; first compound 0.03162 µM): 0.944
- relative viability ([10]; first compound 0.1 µM): 0.83
- relative viability ([10]; first compound 0.3162 µM): 1.07
- relative viability ([10]; first compound 1 µM): 0.779
- relative viability ([11]; first compound 0.01 µM): 0.912
- relative viability ([11]; first compound 0.03162 µM): 0.819
- relative viability ([11]; first compound 0.1 µM): 1.3
- relative viability ([11]; first compound 0.3162 µM): 1.35
- relative viability ([11]; first compound 1 µM): 0.774
- relative viability ([12]; first compound 0.01 µM): 0.187
- relative viability ([12]; first compound 0.03162 µM): 0.181
- relative viability ([12]; first compound 0.1 µM): 0.178
- relative viability ([12]; first compound 0.3162 µM): 0.207
- relative viability ([12]; first compound 1 µM): 0.207
